Results reported in ChEMBL document CHEMBL1151440, “Safety and pharmacokinetics of GSK364735, a human immunodeficiency virus type 1 integrase inhibitor, following single and repeated administration in healthy adult subjects” (Antimicrob Agents Chemother, 2007).

Experiments:
[1] = Apparent oral clearance in human at 50 mg administered with fat meal every 12 hrs for 8 days measured on day 8; assay type: ADME, organism-based; conditions: in vivo
[2] = Apparent oral clearance in fasted human at 100 mg administered as single dose; assay type: ADME, organism-based; conditions: in vivo
[3] = Apparent oral clearance in human at 200 mg administered with fat meal as single dose; assay type: ADME, organism-based; conditions: in vivo
[4] = Cmax in human at 200 mg administered with fat meal as single dose; assay type: ADME, organism-based; set-up: dose 200 mg; conditions: in vivo
[5] = Apparent oral clearance in human at 200 mg administered with fat meal every 12 hrs for 8 days measured on day 8; assay type: ADME, organism-based; conditions: in vivo
[6] = AUC (0 to infinity) in fasted human at 100 mg administered as single dose; assay type: ADME, organism-based; set-up: dose 100 mg, time infinity; conditions: plasma
[7] = Plasma concentration in human at 200 mg administered with fat meal every 8 hrs for 8 days measured on day 1 after 12 hrs of first dose; assay type: ADME, organism-based
Homo sapiens [8] = experiment: Toxicity in human assessed as headache at 100 mg administered every 12 hrs for 8 days; assay type: organism-based; conditions: in vivo
[9] = Tmax in human at 50 mg administered with fat meal every 12 hrs for 8 days measured on day 8; assay type: ADME, organism-based; conditions: in vivo
Homo sapiens [10] = experiment: Toxicity in human assessed as changes in hematology at 50 to 400 mg after sequential repeated administration for 8 days; assay type: organism-based; conditions: in vivo, 192 h
Homo sapiens [11] = experiment: Toxicity in human assessed as adverse effect at 200 mg administered every 12 hrs for 8 days; assay type: organism-based; conditions: in vivo
[12] = Plasma concentration in human at 100 mg administered with fat meal every 12 hrs for 8 days measured on day 1 after 12 hrs of first dose; assay type: ADME, organism-based
Homo sapiens [13] = experiment: Toxicity in human assessed as headache at 50 mg administered every 12 hrs for 8 days; assay type: organism-based; conditions: in vivo
Homo sapiens [14] = experiment: Toxicity in human assessed as adverse effect at 100 mg administered every 12 hrs for 8 days; assay type: organism-based; conditions: in vivo
[15] = Tmax in human at 400 mg administered with fat meal daily for 8 days measured on day 1; assay type: ADME, organism-based; conditions: in vivo
[16] = Plasma concentration in human at 50 mg administered with fat meal every 12 hrs for 8 days measured on day 1 after 12 hrs of first dose; assay type: ADME, organism-based
[17] = system: Human immunodeficiency virus 1; experiment: Antiviral activity against HIV1 BaL in peripheral blood lymphocytes in presence of 100% human serum; assay type: functional, organism-based; conditions: Human immunodeficiency virus 1, BaL
[18] = Terminal elimination half life in human at 50 mg administered with fat meal every 12 hrs for 8 days measured on day 1; assay type: ADME, organism-based; conditions: in vivo, read-out: beta t1/2 (converted)
[19] = Apparent oral clearance in human at 200 mg administered with fat meal every 8 hrs for 8 days measured on day 1; assay type: ADME, organism-based; conditions: in vivo
[20] = Oral bioavailability in monkey; assay type: ADME, organism-based, Macaca mulatta; conditions: rhesus monkey, in vivo
[21] = AUC (0 to 12 hrs) in human at 200 mg administered with fat meal every 12 hrs for 8 days measured on day 8; assay type: ADME, organism-based; set-up: dose 200 mg, time < 12 hr; conditions: plasma
[22] = Terminal elimination half life in human at 200 mg administered with fat meal every 12 hrs for 8 days measured on day 1; assay type: ADME, organism-based; conditions: in vivo, read-out: beta t1/2 (converted)
[23] = Cmax in human at 100 mg administered with fat meal every 12 hrs for 8 days measured on day 8; assay type: ADME, organism-based; set-up: dose 100 mg; conditions: in vivo
[24] = Cmax in human at 200 mg administered with fat meal every 12 hrs for 8 days measured on day 1; assay type: ADME, organism-based; set-up: dose 200 mg; conditions: in vivo
[25] = Terminal elimination half life in human at 100 mg administered with fat meal every 12 hrs for 8 days measured on day 1; assay type: ADME, organism-based; conditions: in vivo, read-out: beta t1/2 (converted)
[26] = AUC (0 to infinity) in human at 200 mg administered with fat meal as single dose; assay type: ADME, organism-based; set-up: dose 200 mg, time infinity; conditions: plasma
Homo sapiens [27] = experiment: Toxicity in human assessed as dizziness at 50 mg administered every 12 hrs for 8 days; assay type: organism-based; conditions: in vivo
Canis familiaris = experiment: Clearance in iv dosed dog assessed as liver blood flow; assay type: ADME, organism-based, Canis lupus familiaris; conditions: in vivo
[28] = Apparent oral clearance in human at 200 mg administered with fat meal every 8 hrs for 8 days measured on day 8; assay type: ADME, organism-based; conditions: in vivo
[29] = AUC (0 to infinity) in human at 200 mg administered with fat meal every 12 hrs for 8 days measured on day 1; assay type: ADME, organism-based; set-up: dose 200 mg, time infinity; conditions: plasma
[30] = Cmax in human at 400 mg administered with fat meal daily for 8 days measured on day 8; assay type: ADME, organism-based; set-up: dose 400 mg; conditions: in vivo
[31] = AUC (0 to infinity) in human at 200 mg administered with fat meal every 8 hrs for 8 days measured on day 1; assay type: ADME, organism-based; set-up: dose 200 mg, time infinity; conditions: plasma
Homo sapiens [32] = experiment: Toxicity in human assessed as flatulence at 50 to 200 mg administered as single dose; assay type: organism-based; conditions: in vivo
Homo sapiens [33] = experiment: Toxicity in human assessed as headache at 200 mg administered every 12 hrs for 8 days; assay type: organism-based; conditions: in vivo
[34] = Terminal elimination half life in fasted human at 400 mg administered as single dose; assay type: ADME, organism-based; conditions: in vivo, read-out: beta t1/2 (converted)
[35] = Tmax in human at 50 mg administered with fat meal every 12 hrs for 8 days measured on day 1; assay type: ADME, organism-based; conditions: in vivo
[36] = Apparent oral clearance in human at 100 mg administered with fat meal every 12 hrs for 8 days measured on day 8; assay type: ADME, organism-based; conditions: in vivo
Homo sapiens [37] = experiment: Toxicity in human assessed as dizziness at 200 mg administered every 8 hrs for 8 days; assay type: organism-based; conditions: in vivo
[38] = Tmax in human at 200 mg administered with fat meal every 8 hrs for 8 days measured on day 8; assay type: ADME, organism-based; conditions: in vivo
[39] = Tmax in human at 200 mg administered with fat meal every 12 hrs for 8 days measured on day 8; assay type: ADME, organism-based; conditions: in vivo
[40] = Tmax in human at 200 mg administered with fat meal every 12 hrs for 8 days measured on day 1; assay type: ADME, organism-based; conditions: in vivo
Homo sapiens [41] = experiment: Toxicity in human assessed as increase in LDL cholesterol level at 50 to 400 mg after sequential repeated dose administration for 8 days relative to basal level; assay type: organism-based; conditions: in vivo, 192 h
[42] = Cmax in human at 200 mg administered with fat meal every 8 hrs for 8 days measured on day 8; assay type: ADME, organism-based; set-up: dose 200 mg; conditions: in vivo
[43] = Terminal elimination half life in human at 200 mg administered with fat meal every 8 hrs for 8 days measured on day 8; assay type: ADME, organism-based; conditions: in vivo, read-out: beta t1/2 (converted)
[44] = Cmax in human at 400 mg administered with fat meal daily for 8 days measured on day 1; assay type: ADME, organism-based; set-up: dose 400 mg; conditions: in vivo
[45] = AUC (0 to 8 hrs) in human at 200 mg administered with fat meal every 8 hrs for 8 days measured on day 8; assay type: ADME, organism-based; set-up: time < 8 hr, dose 200 mg; conditions: plasma
Homo sapiens [46] = experiment: Toxicity in human assessed as changes in hematology at 50 to 200 mg administered as single dose; assay type: organism-based; conditions: in vivo
Homo sapiens [47] = experiment: Toxicity in human assessed as changes in continuous telemetry monitoring at 50 to 400 mg after sequential repeated administration for 8 days; assay type: organism-based; conditions: in vivo, 192 h
Homo sapiens [48] = experiment: Toxicity in human assessed as changes in 12-lead ECG at 50 to 200 mg administered as single dose; assay type: organism-based; conditions: in vivo
[49] = Tmax in fasted human at 100 mg administered as single dose; assay type: ADME, organism-based; conditions: in vivo
[50] = AUC (0 to 24 hrs) in human at 400 mg administered with fat meal daily for 8 days measured on day 8; assay type: ADME, organism-based; set-up: dose 400 mg, time < 24 hr; conditions: plasma
Homo sapiens [51] = experiment: Toxicity in human assessed as changes in vital signs at 50 to 200 mg administered as single dose; assay type: organism-based; conditions: in vivo
[52] = AUC (0 to infinity) in human at 400 mg administered with fat meal daily for 8 days measured on day 1; assay type: ADME, organism-based; set-up: dose 400 mg, time infinity; conditions: plasma
[53] = Terminal elimination half life in human at 200 mg administered with fat meal every 8 hrs for 8 days measured on day 1; assay type: ADME, organism-based; conditions: in vivo, read-out: beta t1/2 (converted)
Homo sapiens [54] = experiment: Toxicity in human assessed as adverse effect at 50 mg administered every 12 hrs for 8 days; assay type: organism-based; conditions: in vivo
[55] = Tmax in fasted human at 50 mg administered as single dose; assay type: ADME, organism-based; conditions: in vivo

CL/F [1]: 150 mL/min | CL/F [2]: 317 mL/min | CL/F [3]: 317 mL/min | Cmax [4]: 1300 ng/mL | CL/F [5]: 350 mL/min | AUC(0-inf) [6]: 5200 ng·h/mL | concentration at 12 h [7]: 130 ng/mL | Tmax [9]: 3.75 h | concentration at 12 h [12]: 160 ng/mL | Tmax [15]: 5 h | concentration at 12 h [16]: 93 ng/mL | IC50 [17]: 42 nM | IC90 [17]: 168 nM | half-life [18]: 156 min | CL/F [19]: 567 mL/min | bioavailability [20]: 6% | AUC at 12 h [21]: 9600 ng·h/mL | half-life [22]: 234 min | Cmax [23]: 2600 ng/mL | Cmax [24]: 1500 ng/mL | half-life [25]: 186 min | AUC(0-inf) [26]: 11000 ng·h/mL | QH (Canis familiaris): 27.8% | CL/F [28]: 683 mL/min | AUC(0-inf) [29]: 9200 ng·h/mL | Cmax [30]: 2100 ng/mL | AUC(0-inf) [31]: 5900 ng·h/mL | half-life [34]: 396 min | Tmax [35]: 5.5 h | CL/F [36]: 138 mL/min | Tmax [38]: 4 h | Tmax [39]: 3 h | Tmax [40]: 4 h | Cmax [42]: 970 ng/mL | half-life [43]: 240 min | Cmax [44]: 2200 ng/mL | AUC at 8 h [45]: 4900 ng·h/mL | Tmax [49]: 2.5 h | AUC at 24 h [50]: 12000 ng·h/mL | AUC(0-inf) [52]: 15000 ng·h/mL | half-life [53]: 222 min | Tmax [55]: 1.5 h
Structure (SMILES): Cn1c(=O)c(C(=O)NCCO)c(O)c2ncc(Cc3ccc(F)cc3)cc21 [GSK-364735]
Activity (Homo sapiens [8]): 13% | Activity (Homo sapiens [10]): Non-toxic | Activity (Homo sapiens [11]): 25% | Activity (Homo sapiens [13]): 13% | Activity (Homo sapiens [14]): 38% | Activity (Homo sapiens [27]): Non-toxic | Activity (Homo sapiens [32]): 4% | Activity (Homo sapiens [33]): 13% | Activity (Homo sapiens [37]): 13% | Activity (Homo sapiens [41]): 0.5 mg/dL | Activity (Homo sapiens [46]): Non-toxic | Activity (Homo sapiens [47]): Non-toxic | Activity (Homo sapiens [48]): Non-toxic | Activity (Homo sapiens [51]): Non-toxic | Activity (Homo sapiens [54]): 25%
